Data on nine molecules can be found in PMC11850616, “Nanomolar inhibitor of the galectin-8 N-terminal domain binds via a non-canonical cation-π interaction” (Communications Chemistry, 2025).

Test [1] deals with T1, Gal-8N (Homo sapiens, UniProt O00214).
T1 construct: consisting of residues 4-158 was produced by Lund Protein Production Platform; made in house; host or cells: E. coli TUNER(DE3)
T1 sequence (O00214 4-158): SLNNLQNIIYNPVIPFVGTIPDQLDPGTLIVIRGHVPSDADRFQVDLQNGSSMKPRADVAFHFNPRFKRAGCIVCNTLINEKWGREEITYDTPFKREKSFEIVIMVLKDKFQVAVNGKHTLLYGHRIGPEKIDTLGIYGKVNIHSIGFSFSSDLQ
Description: isothermal titration calorimetry (ITC), binding to Gal-8N. The method, then: Isothermal titration calorimetry (ITC) experiments were conducted using a Microcal PEAQ-ITC isothermal titration calorimeter (Malvern Instruments, Malvern Panalytical Ltd) at 25 °C. Lyophilized Gal-8N was first dissolved in PBS buffer (with a 4.3 mM β-mercaptoethanol) with a pH = 7.4 and Gal-8N was dialyzed with a 0.5–3 mL Slide-A-Lyzer™ 7k MWCO Dialysis Cassette in the same buffer. To remove residual lactose, Gal-8N was additionally purified using Superdex 75 Increase column equilibrated in PBS with 5% DMSO. Fractions containing Gal-8N were collected and concentrated with Amicon® Ultra-0.5 Centrifugal Filter Device with a 10k MWCO to a final concentration of about 40 µM. A280 was measured using the NanoDrop^TM One Microvolume UV-VIS spectrophotometer and the concentration of Gal-8N was calculated (ε = 11460 L mol^−1 cm^−1 was used). 16 mM stock solutions of 1, 11, and 29 were prepared in pure DMSO. The 16 mM stock solutions were diluted to 800 μM with pure PBS and then to the final concentration of 560 μM (the final content of DMSO was 5%). Titrations were performed with 19 injections of Gal-8N inhibitors 1, 11 (560 μM) and 29 (800 μM) with a following settings: reference power = 10.0 µcal s^−1, feedback = high, stir speed = 750, Initial delay = 100 s, first spacing = 200 s, the other spacings = 150 s.
Raw thermograms were exported and integrated with the NITPIC (version 2.0.7)[43] and then analyzed with SEDPHAT (version 15.2)[44],[45]. Parameter and error analysis were performed using the Monte-Carlo approach for nonlinear regression with 1000 iterations as implemented in SEDPHAT.

For test [2], the target named is T1, Gal-8N. Description: ligand efficiency (LE) and ligand-lipophilicity efficiency (LLE) calculations. To be noted: for LLE: from Gal-8N Kd and clogP; for LE: from Gal-8N Kd and number of non-hydrogen atoms.
Test [3] has as its target T2, Gal-1 (Homo sapiens, UniProt P09382).
T2 construct: made in house
The experiment in a line: competitive fluorescence polarisation assay, Gal-1. Format: binding. To be noted: for Kd: competitive FP, mean ± SEM of n = 4 to 8, 20 °C; for Gal-1 selectivity ratio Kd (Gal-1)/Kd (Gal-8N): ratio of FP Kd values. The method, then:
(§1) Human galectins-1, -3, and -8N were expressed and purified as described previously[8],[23],[24]. Competitive fluorescence polarization assays were performed with a PHERAstar FS plate reader with software PHERAstar Mars version 2.10 R3 (BMG, Offenburg, Germany) and Tecan Spark multimode microplate reader (Tecan Trading AG, Switzerland), where a fluorescence anisotropy of fluorescent-tagged probes was measured by excitation at 485 nm and emission at 520 nm. Experiments were performed at 20 °C with Gal-1 at 0.5 µM, Gal-3 at 0.2 µM, and Gal-8N at 0.4 µM. Fluorescent probes used for experiments were 3,3′-dideoxy-3-[4-(fluorescein-5-yl-carbonylaminomethyl)-1H-1,2,3-triazol-1-yl]-3′-(3,5-di-methoxybenzamido)-1,1′-sulfanediyl-di-β-D-galactopyranoside at 0.02 µM for Gal-1 and -3 and 2-(fluorescein-5-yl-carbonylamino)ethyl β-D-galactopyranosyl(1-4)-2-acetamido-2-deoxy-β-D-glucopyranosyl(1–3)-β-D-galactopyranosyl(1–4)-β-D-glucopyranoside at 0.1 µM for Gal-8N in each well. Compounds were first dissolved in pure DMSO at 20 mM concentration and later diluted in 5% DMSO in PBS solution to 5-7 different concentrations. Each concentration was tested in duplicate. The highest inhibitor concentrations tested were 1.5 mM. The average values of Kd and SEM (standard error mean) were calculated from 4 to 8 duplicate measurements, showing 10–90% inhibition.
(In general: In fluorescence polarisation assays a small probe gives low polarisation when free and higher when bound to something large.)

The target in test [4] is T3, Gal-8N (galectin-8 N-terminal domain) (Homo sapiens, UniProt O00214).
T3 construct: made in house
T3 sequence (O00214 19-152 limits assumed): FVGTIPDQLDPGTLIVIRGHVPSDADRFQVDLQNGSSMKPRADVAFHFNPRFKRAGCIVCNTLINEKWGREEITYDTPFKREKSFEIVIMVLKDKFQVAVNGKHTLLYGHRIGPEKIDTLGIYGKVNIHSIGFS
Description: competitive fluorescence polarisation assay, Gal-8N. Format: binding. To be noted: competitive FP, mean ± SEM of n = 4 to 8, 20 °C; read-out: Kd Gal-8N. The method, then:
as §1

For test [5], the target named is T4, Gal-3 (Homo sapiens, UniProt P17931).
T4 construct: made in house
T4 sequence (P17931 whole entry): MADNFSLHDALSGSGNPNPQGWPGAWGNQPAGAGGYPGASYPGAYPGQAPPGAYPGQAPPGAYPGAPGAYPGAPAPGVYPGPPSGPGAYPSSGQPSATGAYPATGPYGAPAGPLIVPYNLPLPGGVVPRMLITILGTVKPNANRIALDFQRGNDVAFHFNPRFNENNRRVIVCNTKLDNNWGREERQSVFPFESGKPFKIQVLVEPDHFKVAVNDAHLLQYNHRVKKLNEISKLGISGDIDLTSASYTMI
Description: competitive fluorescence polarisation assay, Gal-3. Format: binding. To be noted: for Kd: competitive FP, mean ± SEM of n = 4 to 8, 20 °C, read-out: Kd Gal-3; for Gal-3 selectivity ratio Kd (Gal-3)/Kd (Gal-8N): ratio of FP Kd values. The method, then: as §1

Test [6] deals with T5, Gal-8C (Homo sapiens, UniProt O00214).
T5 construct: than to the C-terminal domain (Gal-8C)
T5 sequence (O00214 187-317 limits assumed): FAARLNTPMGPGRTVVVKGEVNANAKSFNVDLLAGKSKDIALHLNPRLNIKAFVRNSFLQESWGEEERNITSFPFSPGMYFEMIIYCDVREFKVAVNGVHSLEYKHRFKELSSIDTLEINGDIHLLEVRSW
Description: competitive fluorescence polarisation assay, Gal-8C. Format: binding. To be noted: for Kd: competitive FP, mean ± SEM of n = 4 to 8; for Gal-8C selectivity ratio Kd (Gal-8C)/Kd (Gal-8N): ratio of FP Kd values.

Setting [7] is: 25 °C, PBS buffer, 1:1 binding model, n = 2.

Molecules are shown by their SMILES. Where “and” joins values, the source holds several entries; their conditions need not be identical. Equal entries are not always repeated.

T2 sequence (P09382 whole entry): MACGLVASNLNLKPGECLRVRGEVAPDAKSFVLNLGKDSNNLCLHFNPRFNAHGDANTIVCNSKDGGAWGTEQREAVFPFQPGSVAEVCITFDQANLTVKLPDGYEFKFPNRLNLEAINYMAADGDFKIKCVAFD

`C#CCO[C@@H]1[C@@H](OCc2nc3ccc(C(=O)O)cc3n2C)[C@@H](O)[C@@H](CO)O[C@@H]1Sc1ccc(Cl)c(Cl)c1` [Compound 11]: in test [1] (setting [7]), the “-TΔS” value is 6.69 ± 2.2 kcal/mol and 6.69 kcal/mol; the Kd was determined as 1.3 µM; the ΔG was -8.01 ± 0.12 kcal/mol and -8.01 kcal/mol; the ΔH is -14.6 ± 1.9 kcal/mol and -14.6 kcal/mol. Further, the “ΔΔH compared to 1” value in test [1] (difference vs compound 1) is on record as “–17 kJ mol^−1”. Also, the “ΔΔH compared to 29” value in test [1] (difference vs compound 29) is “–4 kJ mol^−1”. Moreover, in test [2], the LLE is on record as 2.01 and the LE is reported as 0.226 (kcal/mol)/heavy atom. The molecule further came in with a Kd in test [3] of 10 ± 0.71 µM. The Kd in test [4] came to 0.8 ± 0.09 µM. In test [5], the Kd amounted to 1.4 ± 0.2 µM and the “Gal-3 selectivity ratio Kd (Gal-3)/Kd (Gal-8N)” value (“Gal-3 selectivity ratio Kd” for short) is on record as 1.75. Moreover, in test [6], the Kd turned out to be 390 ± 14 µM and the “Gal-8C selectivity ratio Kd (Gal-8C)/Kd (Gal-8N)” value (“Gal-8C selectivity ratio Kd” for short) came to 488.

In the case of `COC(=O)c1cccc(-n2cc(CO[C@@H]3[C@@H](OCc4nc5ccc(C(=O)O)cc5n4C)[C@@H](O)[C@@H](CO)O[C@@H]3Sc3ccc(Cl)c(Cl)c3)nn2)c1` [Compound 15b], in test [2], the LLE is 0.0722 and the LE is reported as 0.146 (kcal/mol)/heavy atom. In test [3], the Kd amounted to 104 ± 7.4 µM and the “Gal-1 selectivity ratio Kd (Gal-1)/Kd (Gal-8N)” value (from here on “Gal-1 selectivity ratio Kd”) is on record as 23. Further, the dissociation constant Kd in test [4] is 4.5 ± 0.24 µM. For the same molecule, in test [5], the Kd was found to be 22 ± 5.5 µM and the “Gal-3 selectivity ratio Kd” value is on record as 4.9. In test [6], the Kd worked out at 568 ± 23 µM and the “Gal-8C selectivity ratio Kd” value is listed as 126.

Turning to `COC(=O)c1ccc(-n2cc(CO[C@@H]3[C@@H](OCc4nc5ccc(C(=O)O)cc5n4C)[C@@H](O)[C@@H](CO)O[C@@H]3Sc3ccc(Cl)c(Cl)c3)nn2)cc1` [Compound 15c], in test [2], the LLE is given as 0.109 and the LE is 0.147 (kcal/mol)/heavy atom. Further, in test [3], binding was put at a Kd of 99 ± 3.1 µM and the “Gal-1 selectivity ratio Kd” value is recorded as 24. For the same molecule, the Kd in test [4] stood at 4.1 ± 0.33 µM. Moreover, in test [5], the Kd came out at 23 ± 4.9 µM and the “Gal-3 selectivity ratio Kd” value is on record as 5.6. In addition, in test [6], binding was characterised by a dissociation constant (Kd) of 350 ± 60 µM and the “Gal-8C selectivity ratio Kd” value amounted to 85.

Consider `Cn1c(CO[C@H]2[C@@H](O)[C@@H](CO)O[C@H](Sc3ccc(Cl)c(Cl)c3)[C@@H]2OCc2cn(-c3ccccc3C(=O)O)nn2)nc2ccc(C(=O)O)cc21` [Compound 16a], for which, in test [2], the LLE is on record as 1.26 and the LE is recorded as 0.177 (kcal/mol)/heavy atom. For the same molecule, in test [3], the Kd worked out at 26 ± 1.1 µM and the “Gal-1 selectivity ratio Kd” value amounted to 57. Also, the Kd in test [4] amounted to 0.46 ± 0.03 µM. Further, in test [5], the Kd came out at 1.2 ± 0.2 µM and the “Gal-3 selectivity ratio Kd” value amounted to 2.6. Moreover, in test [6], the Kd was 159 ± 4 µM and the “Gal-8C selectivity ratio Kd” value came to 346.

On to `Cn1c(CO[C@H]2[C@@H](O)[C@@H](CO)O[C@H](Sc3ccc(Cl)c(Cl)c3)[C@@H]2OCc2cn(-c3cccc(C(=O)O)c3)nn2)nc2ccc(C(=O)O)cc21` [Compound 16b], for which, in test [2], the LLE is given as 1.11 and the LE is listed as 0.173 (kcal/mol)/heavy atom. Further, in test [3], the Kd was found to be 37 ± 1.1 µM and the “Gal-1 selectivity ratio Kd” value is reported as 57. In addition, the dissociation constant Kd in test [4] was found to be 0.65 ± 0.05 µM. Also, in test [5], the Kd was found to be 2.9 ± 0.4 µM and the “Gal-3 selectivity ratio Kd” value is on record as 4.5. Moreover, in test [6], the Kd stood at 100 ± 2 µM and the “Gal-8C selectivity ratio Kd” value worked out at 154.

As for `Cn1c(CO[C@H]2[C@@H](O)[C@@H](CO)O[C@H](Sc3ccc(Cl)c(Cl)c3)[C@@H]2OCc2cn(-c3ccc(C(=O)O)cc3)nn2)nc2ccc(C(=O)O)cc21` [Compound 16c], in test [2], the LLE is recorded as 0.888 and the LE was 0.167 (kcal/mol)/heavy atom. In addition, in test [3], the Kd is 45 ± 0.8 µM and the “Gal-1 selectivity ratio Kd” value is listed as 41. In addition, the Kd in test [4] came to 1.1 ± 0.07 µM. In test [5], the Kd was 6.2 ± 1.1 µM and the “Gal-3 selectivity ratio Kd” value is listed as 5.6. In addition, in test [6], the Kd came to 201 ± 37 µM and the “Gal-8C selectivity ratio Kd” value is listed as 183.

`Cn1c(CO[C@H]2[C@@H](O)[C@@H](CO)O[C@H](Sc3ccc(Cl)c(Cl)c3)[C@@H]2OCC2CCCCC2)nc2ccc(C(=O)O)cc21` [Compound 19]: in test [2], the LLE is -0.926 and the LE is recorded as 0.180 (kcal/mol)/heavy atom. Moreover, in test [3], the Kd was 76 ± 15 µM and the “Gal-1 selectivity ratio Kd” value is on record as 18.5. Besides, the Kd in test [4] came out at 4.1 ± 0.61 µM. Besides, in test [5], the Kd came out at 21 ± 1.5 µM and the “Gal-3 selectivity ratio Kd” value came out at 5.1. Moreover, in test [6], the affinity, expressed as Kd, was 662 ± 27 µM and the “Gal-8C selectivity ratio Kd” value stood at 161.

In the case of `Cn1c(CO[C@H]2[C@@H](O)[C@@H](CO)O[C@H](Sc3ccc(Cl)c(Cl)c3)[C@@H]2OCC2CCC2)nc2ccc(C(=O)O)cc21` [Compound 25], in test [2], the LLE is 0.593 and the LE is given as 0.204 (kcal/mol)/heavy atom. For the same molecule, in test [3], the Kd was found to be 16 ± 0.5 µM and the “Gal-1 selectivity ratio Kd” value is reported as 10. Besides, the equilibrium dissociation constant (Kd) in test [4] stood at 1.6 ± 0.07 µM. For the same molecule, in test [5], the equilibrium dissociation constant (Kd) is 9.4 ± 1.9 µM and the “Gal-3 selectivity ratio Kd” value is 5.9. In test [6], binding was put at a Kd of 383 ± 21 µM and the “Gal-8C selectivity ratio Kd” value came to 239.

Consider `CO[C@@H]1[C@@H](OCc2nc3ccc(C(=O)O)cc3n2C)[C@@H](O)[C@@H](CO)O[C@@H]1Sc1ccc(Cl)c(Cl)c1` [Compound 32], for which, in test [2], the LLE is on record as 2.08 and the LE was 0.231 (kcal/mol)/heavy atom. Moreover, in test [3], the Kd turned out to be 16 ± 0.8 µM and the “Gal-1 selectivity ratio Kd” value was found to be 12.3. In test [4], the dissociation constant (Kd) worked out at 1.3 ± 0.05 µM. Moreover, in test [5], the Kd came to 4.5 ± 0.7 µM and the “Gal-3 selectivity ratio Kd” value worked out at 3.5. For the same molecule, in test [6], binding was put at a Kd of 358 ± 29 µM and the “Gal-8C selectivity ratio Kd” value came to 275.

One may read the Kd as a measure of binding affinity in units of concentration.
